# Source: PMC3367765 (Pflugers Archiv, 2012)
# Read-outs that look alike come from different tables or passages of the source.
# T1: Kvβ3 (Mus musculus, UniProt F6YMI4)
# T1 sequence (F6YMI4 1-404): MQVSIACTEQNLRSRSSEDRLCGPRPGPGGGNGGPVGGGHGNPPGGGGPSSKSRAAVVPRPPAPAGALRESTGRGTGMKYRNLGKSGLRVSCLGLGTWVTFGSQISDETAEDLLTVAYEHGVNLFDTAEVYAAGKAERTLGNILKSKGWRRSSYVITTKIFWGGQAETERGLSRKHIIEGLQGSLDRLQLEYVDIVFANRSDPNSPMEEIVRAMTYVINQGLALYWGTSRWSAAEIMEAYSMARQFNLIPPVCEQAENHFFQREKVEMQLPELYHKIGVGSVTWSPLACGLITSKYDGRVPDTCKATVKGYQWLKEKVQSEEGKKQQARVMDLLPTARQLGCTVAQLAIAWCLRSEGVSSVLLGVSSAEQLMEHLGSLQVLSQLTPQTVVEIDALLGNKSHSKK
# T2: Kvβ2 (AKR part, amino acid residues 39-367) (UniProt P62483 39-367)
# T2 sequence (looked up): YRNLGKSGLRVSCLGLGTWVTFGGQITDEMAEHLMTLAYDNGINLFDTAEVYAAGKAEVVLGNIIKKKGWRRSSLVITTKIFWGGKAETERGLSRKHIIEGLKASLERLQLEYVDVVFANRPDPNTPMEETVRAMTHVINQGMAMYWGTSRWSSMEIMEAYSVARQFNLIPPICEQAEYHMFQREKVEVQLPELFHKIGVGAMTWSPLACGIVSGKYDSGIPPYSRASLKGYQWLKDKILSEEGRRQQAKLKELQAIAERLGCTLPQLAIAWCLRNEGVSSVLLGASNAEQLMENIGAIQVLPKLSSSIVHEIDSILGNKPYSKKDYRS
# Legend:
# Kvβ3 = target: T1, Kvβ3; experiment: fluorescence titration; format: binding
# [1] = target: T2, Kvβ2 (AKR part, amino acid residues …); experiment: pull-down
# [2] = target: T2, Kvβ2 (AKR part, amino acid residues …); experiment: pull-down; remark: listed apart in the source
Kd (Kvβ3),Kd [1],Kd [2],Molecule
38 ± 9 µM,–,–,NC(=O)c1ccc[n+]([C@@H]2O[C@H](COP(=O)(O)OP(=O)(O)OC[C@H]3O[C@@H](n4cnc5c(N)ncnc54)[C@H](OP(=O)(O)O)[C@@H]3O)[C@@H](O)[C@H]2O)c1 [NADP^+]
5.6 ± 0.26 µM,–,–,NC(=O)C1=CN([C@@H]2O[C@H](COP(=O)(O)OP(=O)(O)OC[C@H]3O[C@@H](n4cnc5c(N)ncnc54)[C@H](OP(=O)(O)O)[C@@H]3O)[C@@H](O)[C@H]2O)C=CC1 [NADPH]
–,5.2 ± 0.8 µM,9.9 ± 1.7 µM,"GST-C60 protein expressed from pDEST-26 vector (domain or fragment, rat, UniProt P19024 543-602, looked up) RKVSCSKASFCKTGGSLESSDSIRRGSCPLEKCHLKAKSNVDLRRSLYALCLDTSRETDL"
